Experiment: xn = mol fraction of the nth substance listed
Settings: 101.3 kPa

CCCC[NH3+].O=[N+]([O-])[O-] + O
x2 = 0.435
Settings	viscosity [mPa·s]
283.15 K	43.41
288.15 K	35.87
293.15 K	29.92
303.15 K	21.45
308.15 K	18.52
313.15 K	16.04
318.15 K	14.65
323.15 K	12.38
328.15 K	11.26
333.15 K	9.535
338.15 K	8.605
343.15 K	7.11
348.15 K	6.46
353.15 K	5.89
358.15 K	5.4
363.15 K	4.98
368.15 K	4.6
373.15 K	4.266

CC[NH3+].O=[N+]([O-])[O-] + O
x2 = 0.574
Settings	viscosity [mPa·s]
283.15 K	8.965
288.15 K	6.679
293.15 K	6.018
298.15 K	5.487
313.15 K	4.258
318.15 K	3.893
323.15 K	3.622
333.15 K	3.173
338.15 K	3.007
348.15 K	1.807
353.15 K	1.695
358.15 K	1.589
363.15 K	1.492
368.15 K	1.434
373.15 K	1.343

— a compilation of properties of binary mixtures (doi:10.1007/s10973-023-12194-1)
